system: cultured neurocytes of rat fetal cerebral cortex; test: Activity of accelerating synapse formation (intracellular calcium ion level, fura-2); format: cell-based; conditions: relative value, L-PDMP regarded as 100; compound 20 μM; assay on 10th day of culture
Protocol: The activity of accelerating synapse formation was determined by measuring change of an intracellular calcium ion level resulted from the synchronized spontaneous ignition of neurocytes which is considered to show synapse activities by means of an intracellular calcium ion multipoint observation system using a calcium ion fluorescence indicator, fura-2.
Concretely, rat fetuses at the 18th day of pregnancy were taken out from Wistar rats (available from Japan SLC), and cerebral cortices of the fetuses were taken out and cut into small pieces. After having been treated with papain (manufactured by Worthington Biochemical) at 37° C. for 30 minutes, the pieces were suspended into a Dulbecco modified Eagle's medium containing 5% bovine neonatal serum and 5% equine serum and the cortices were dissociated into single cells with Cell Striner (70 μm, Falcon). Then, the cells were inoculated into a flexiperm plate coated with 0.5% polyethyleneimine (1.0×10^6 cells/500 μl/well), and was cultured in 7% CO2 incubator at 37° C. The medium was exchanged on 2nd, 5th, and 8th days after the culture had been started. The activity of the compound of the present invention was measured using the primary culture. The compound was added at the time when the medium was exchanged and the concentration of the compound was maintained to be 20 μM. Assay was carried out on 10th day after the culture had been started.
(2) Measurement of Activity of Accelerating Synapse Formation
Concretely, after the medium of each well where cells were cultured was substituted with basic salt solution (BSS), 3 μl of a DMSO solution (1 mg/ml) of a calcium ion fluorescence indicator fura-2 was added, and the whole was kept at 37° C. for 1 hour.

Compound | Activity of synapse formation
CCOC(=O)CCCCC(=O)N[C@@H](CN1CCOCC1)[C@@H](O)c1ccccc1 [Example 6, (1S,2S)-2-ethoxyhexanedioylamino-3-morpholino-1-phenyl-1-propanol] | 87.5
CCCCN(C)C(=O)CCC(=O)N[C@@H](CN1CCOCC1)[C@@H](O)c1ccccc1 [Example 10, (1S,2S)-2-(N-butyl-N-methylamino)butanedioylamino-3-morpholino-1-phenyl-1-propanol] | 91.7
CCNC(=O)CCCCC(=O)N[C@@H](CN1CCOCC1)[C@@H](O)c1ccccc1 [Example 11, (1S,2S)-2-(5-ethylcarbamoyl)pentanoylamino-3-morpholino-1-phenyl-1-propanol] | 93.3
CCCCNC(=O)CCCCCCCCC(=O)N[C@@H](CN1CCOCC1)[C@@H](O)c1ccccc1 [Example 14, (1S,2S)-2-(9-butylcarbamoyl)nonanoylamino-3-morpholino-1-phenyl-1-propanol] | 94.2
CCCCCCNC(=O)CCCCCCCCC(=O)N[C@@H](CN1CCOCC1)[C@@H](O)c1ccccc1 [Example 15, (1S,2S)-2-(9-hexylcarbamoyl)nonanoylamino-3-morpholino-1-phenyl-1-propanol] | 90.0
CCCCCCNC(=O)C1CCC(C(=O)N[C@@H](CN2CCOCC2)[C@@H](O)c2ccccc2)CC1 (stereo partly drawn) [Example 17, (1S,2S)-2-(cyclohexane-4-hexylcarbamoyl-1-carbonyl)amino-3-morpholino-1-phenyl-1-propanol] | 90.0
CCCCCCOCCOCC(=O)N[C@@H](CN1CCOCC1)[C@@H](O)c1ccccc1 [Example 21, (1S,2S)-2-(3,6-dioxadodecanoyl)amino-3-morpholino-1-phenyl-1-propanol] | 97.5
CC(=O)CCCCCC(=O)N[C@@H](CN1CCOCC1)[C@@H](O)c1ccccc1 [Example 22, (1S,2S)-2-(7-oxooctanoyl)amino-3-morpholino-1-phenyl-1-propanol] | 88.3
O=C(CCCCCCCCCO)N[C@@H](CN1CCOCC1)[C@@H](O)c1ccccc1 [Example 23, (1S,2S) -2-(10-hydroxydecanoyl) amino-3-morpholino-1-phenyl-1-propanol] | 85.8
N[C@@H](CCCCNC(=O)CCCCC(=O)N[C@@H](CN1CCOCC1)[C@@H](O)c1ccccc1)C(=O)O [Example 26, (1S,2S,12S)-2-(12-amino-7-aza-6-oxo-12-carboxydodecanoyl)amino-3-morpholino-1-phenyl-1-propanol] | 95.0
N[C@@H](CCCCNC(=O)CCCCCCCCC(=O)N[C@@H](CN1CCOCC1)[C@@H](O)c1ccccc1)C(=O)O [Example 27, (1S,2S,16S)-2-(16-amino-11-aza-10-oxo-16-carboxyhexadecanoyl)amino-3-morpholino-1-phenyl-1-propanol] | 100.0
CC(=O)NC1C(O)CC(CCCCCCCCC(=O)N[C@@H](CN2CCOCC2)[C@@H](O)c2ccccc2)(C(=O)O)OC1C(O)C(O)CO (stereo partly drawn) [Example 28, (1S,2S)-2-(9-sialylnonanoyl)amino-3-morpholino-1-phenyl-1-propanol] | 95.8
(1S,2S)-2-(5-cyclohexylcarbamoyl)pentanoylamino-3-morpholino-1-phenyl-1-propanol [Example 12] | 80.0
(1S,2S)-2-(5-hexylcarbamoyl)pentanoylamino-3-morpholino-1-phenyl-1-propanol [Example 13] | 95.0
